The values that follow come from the supplement of paper PMC11997997.

The subject of assay [1] is Mycobacterium tuberculosis CDC1551 (intracellular, in murine BMDM). The experiment in a line: area under intracellular growth-inhibition dose-response curve (AUC (% inhibition x dose, relative)); higher = more potent. As to conditions: duration: 6 days; dose range: 0.13-80 uM, 8 points. The gist of the method: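 The value is the area under the growth-inhibition dose–response curve, calculated in GraphPad Prism. Primary murine bone marrow-derived macrophages were seeded in 384-well opaque plates and, 24 h later, infected for 1 h with luciferase-expressing M. tuberculosis CDC1551 at multiplicity of infection 1. Cells were then exposed for 6 days to an 8-dose, 2.5-fold series (final 80–0.13 μM). Growth was read with the Bright-Glo luciferin assay and normalised to a reference drug control and to the lowest-concentration wells.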

In assay [2] the test system is murine bone marrow-derived macrophages. The experiment in a line: area under cytotoxicity dose-response curve (AUC (% cytotoxicity x dose, relative)); higher = more cytotoxic. The note with it: duration: 6 days; dose range: 0.13-80 uM, 8 points. The gist of the method:
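Values are the area under the cytotoxicity dose–response curve, calculated with GraphPad Prism version 10. Primary murine bone marrow-derived macrophages were exposed to final concentrations of 80–0.13 μM for 6 days, and viability was read by CellTiter-Glo luminescence with normalisation to vehicle and positive control wells.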

Each structure is given as a SMILES string.

As to `O=C(COC(=O)C1COc2ccccc2O1)Nc1cccc(F)c1` (centres undefined), the “area under intracellular growth-inhibition dose-response curve” value in assay [1] is 46.1. In addition, in assay [2], the “area under cytotoxicity dose-response curve” value is less than 0.
As for `O=[N+]([O-])c1cc([N+](=O)[O-])c2nonc2c1Nc1ccccc1O`, the “area under intracellular growth-inhibition dose-response curve” value in assay [1] worked out at 146. Further, the “area under cytotoxicity dose-response curve” value in assay [2] was 5.05.
The matching figures for `O=C(NCCc1ccncc1)Nc1cccc(Cl)c1`: 11.9 and 79.9.
As for `CCc1ccc(C(=O)NC2CCCCC2)s1`, in assay [1], the “area under intracellular growth-inhibition dose-response curve” value stood at 239. For the same compound, the “area under cytotoxicity dose-response curve” value in assay [2] worked out at 42.5.
Consider `Cc1ccc(/C=N/NC(=O)C2COc3ccccc3O2)s1` (centres undefined), for which, in assay [1], the “area under intracellular growth-inhibition dose-response curve” value was found to be 196. The “area under cytotoxicity dose-response curve” value in assay [2] is less than 0.
The matching figures for `CCCc1ccc(C(=O)CCC(=O)NNC(=O)c2ccncc2)cc1`: 270 and 9.69.
On the same counts, the results for `COc1ccccc1C(CNC(=O)c1ccc(-c2ccccc2Cl)o1)N1CCCC1` (centres undefined) are 164 and 141.
On the same counts, the results for `CC(=O)Nc1sc(N/N=C/c2ccc(O)cc2)nc1-c1ccc(C)cc1` are 181 and 84.1.
In the case of `CCCCCNC(=O)CCc1ccccc1`, in assay [1], the “area under intracellular growth-inhibition dose-response curve” value worked out at 130. Besides, the “area under cytotoxicity dose-response curve” value in assay [2] is less than 0.
The matching figures for `O=C(COC(=O)c1ccccc1O)NC1CCCc2ccccc21` (centres undefined): 126 and less than 0.
On the same counts, the results for `Cc1nc(N/N=C\c2ccc3c(c2)OCO3)sc1C` are 252 and 150.
On the same counts, the results for `O=C(OCC(=O)c1ccc(Cl)s1)c1cncc(Br)c1` are 0.884 and 95.6.
On to `CNC[C@@H](CC1CCCCC1)NC[C@H](CC(C)C)NCCc1cccc(C(F)(F)F)c1`, for which the “area under intracellular growth-inhibition dose-response curve” value in assay [1] was determined as 197. The “area under cytotoxicity dose-response curve” value in assay [2] was 94.
With `O=C(CNC(=O)c1ccc([N+](=O)[O-])cc1)N/N=C\c1ccc(OC(=O)c2ccccc2)cc1`, the “area under intracellular growth-inhibition dose-response curve” value in assay [1] was 109. Also, in assay [2], the “area under cytotoxicity dose-response curve” value was less than 0.
The matching figures for `Cl.c1ccc(-c2nnc(CN3CCCCC3)o2)cc1`: 267 and 36.
On the same counts, the results for `O=C(CSc1nc(-c2ccccc2)ns1)N1CCOCC1` are 163 and 56.3.
On the same counts, the results for `COc1ccc(Cl)cc1NC(=O)C(C)OC(=O)Cn1cc(C(F)(F)F)ccc1=O` (centres undefined) are 24.1 and 119.
With `CCCc1cc(C(=O)NCc2cccs2)no1`, in assay [1], the “area under intracellular growth-inhibition dose-response curve” value amounted to 192. Also, the “area under cytotoxicity dose-response curve” value in assay [2] was less than 0.
The matching figures for `Cc1ccc(C)c(NC(=N)Nc2nc(C)cc(C)n2)c1`: 218 and less than 0.
Regarding `Cc1ccc(-n2c(C)cc(/C=N/NC(=O)c3ccncc3)c2C)c(C)c1`, in assay [1], the “area under intracellular growth-inhibition dose-response curve” value amounted to 268. Besides, the “area under cytotoxicity dose-response curve” value in assay [2] is less than 0.
On the same counts, the results for `O=C(c1ccc([N+](=O)[O-])o1)N1CCN(c2nc3c(Cl)cccc3s2)CC1` are 18.1 and 124.
The matching figures for `CC1CCCN(C(=O)c2ccc(CNc3c(N4CCCCC4)c(=O)c3=O)cc2)C1` (centres undefined): 271 and 23.
As to `CS(=O)(=O)c1ccc([C@@H](O)[C@@H](CF)NC(=O)C(Cl)Cl)cc1`, the “area under intracellular growth-inhibition dose-response curve” value in assay [1] was found to be 78.9. Further, the “area under cytotoxicity dose-response curve” value in assay [2] came to 62.1.
On the same counts, the results for `Cc1cc(C(F)F)nn1CC(=O)NC1C(=O)N2C(C(=O)O)=C(CSc3nnnn3C)CSC12` (centres undefined) are 86.3 and 110.
On to `Cc1ccc(C(=O)OCC(=O)NC2CCCC(C)C2C)cc1S(=O)(=O)N1CCCCC1` (centres undefined), for which the “area under intracellular growth-inhibition dose-response curve” value in assay [1] is 136. Besides, the “area under cytotoxicity dose-response curve” value in assay [2] is less than 0.
The matching figures for `CCc1ccc(C(=O)NCc2cccs2)s1`: 220 and 17.6.
Consider `Cc1ccc(NC(=O)NC2CCCCCCC2)cc1C`, for which, in assay [1], the “area under intracellular growth-inhibition dose-response curve” value was 230. Moreover, the “area under cytotoxicity dose-response curve” value in assay [2] was 89.
